Results as given in patent US20240100062A1, “Methods of Treatment With an Iboga Alkaloid” (priority 2022, published 2024).

Columns and labels:
[1] = test system: cortical neuron; details: in vitro; cited from earlier work
[2] = test system: special operations veterans; experiment: Brief Visuospatial Memory Test-Revised (BVMT-R), Example 1 study; type: in vivo, human
[3] = test system: special operations veterans; experiment: Structural T1w MRI, FreeSurfer regional volume and cortical thickness; type: in vivo, human
Procedure: Structural imaging of the brain was also conducted on some of the subjects of Example 1. Gray matter constitutes about 40% of the brain and white matter constitutes about 60% of the brain. Gray matter contains most of the brain's neuronal cell nodes, it is fully developed once a person reaches their 20's and interprets sensor information from various parts of the body. White matter is made up of bundles which connect various gray matter areas, it develops throughout the 20's and peaks in middle age, Typical metrics analyzed in anatomical (T1-weighted, “T1w”) imaging include volume and/or shape of nuclei (e.g. caudate), volume and/or shape of ventricles of the brain, and cortical thickness (mm). These metrics can be used to study normal and abnormal neuroanatomy and are primarily used to quantify gray matter. A tool called FreeSurfer was applied to images for a T1w structural analysis (volume, cortical thickness) to adjust for bias, remove non-brain matter, segments by tissue, parcels the brain into standardized regions, and provides measurements of those regions. FreeSurfer measurements of whole brain volume, volume by tissue (gray, white, CSF), estimated intracranial volume (ICV), subcortical gray matter volume, cortical volume by region were done. […] In particular, analysis was done to determine if there was any loss in gray matter volume or cortical thickness, whether there was a loss in white matter volume or an increase in presence of white matter hypotensities.
The fMRI images were also inspected to determine the difference in volume in regional areas of the brain from baseline to one month after treatment. FIG. 8A is a bar graph showing the effect size of a change in volume in 47 brain regions indicated along the x-axis. […] The fMRI images were also inspected for whole brain thickness at baseline and one month after treatment. […] FIG. 8B is a bar graph showing the effect size of a cortical thickness change for the brain regions indicated along the x-axis, from baseline to one month after treatment. […] The right and left parahippocampal gyrus are involved in visuospatial processing, including scene perception, navigation, and emotional contextualization. The left orbitofrontal gyrus is involved in impulse control and reward valuation. The left insular cortex is associated with both the affective-perceptual and cognitive-evaluative forms of empathy, as well as awareness of hunger, pain and fatigue. The left entorhinal cortex is a widespread network hub for memory, navigation, and perception of time.

[4] = test system: special operations veterans; experiment: WHODAS 2.0 disability assessment, Example 1 study; type: in vivo, human; details: for WHODAS 2.0 Self Care subscale, mean: baseline 5.2% ± 9.2%; for WHODAS 2.0 Mobility subscale, mean: baseline 14.7% ± 15.7%
Procedure: With subjects in the fasting state, an intravenous infusion of 1 gram of magnesium sulfate was administered 1-2 hours prior to treatment. […] Medical staff (MD, RN, or EMT) were onsite at a ratio of at least 1 staff per 2 patients throughout treatment for monitoring and management, but no specific coaching or psychological support was provided during treatment.
Post treatment, each subject was assessed four days after treatment, one month after treatment, and, if willing, one year after treatment. The post-treatment assessments conducted at four days and at one month after treatment included neuropsychological testing, measures of PTSD, depression, anxiety, mystical experiences, functional imaging and EEG. Post-treatment assessments conducted at one year after treatment included PTSD, depression, and anxiety measures.
World Health Organization Disability Assessment Scale 2.0 (WHODAS 2.0) was used as a measure of function. WHODAS was used to assess the impact of health conditions across six life domains (cognition, mobility, self-care, interpersonal, life activities, and community participation) and it is sensitive to change over time (Gold, L. H., J. Am. Acad. Psychiatry Law 42, 9 (2014). Each item in the assessment is rated on a scale ranging from no problems to extreme problems (Üstün, T. B. et al., Measuring health and disability: Manual for WHO disability assessment schedule WHODAS 2.0. (World Health Organization, 2010)). To capture inter-individual variability in disability the WHODAS complex scoring method was used. Raw scores were converted to a metric ranging from 0 (no disability) to 100 (full disability), by calculating the ratio of the participant's score relative to the maximum possible score in each domain as well as to the total score (Id.). A score of 20%-39% was considered mild, 40%-59% was moderate, 60%-79% was moderate-severe and 80%-100% was severe. Scores from baseline were compared to scores from one-month post treatment.

[5] = test system: special operations veterans; experiment: Clinician rated psychiatric assessments (PTSD, depression, anxiety) overall, Example 1 study; type: in vivo, human; details: following treatment; sustained at one-month follow-up
Procedure: The safety and efficacy of ibogaine treatment in combination with a cardioprotective agent was evaluated in subjects with a history of TBI. At baseline, study participants were experiencing clinically significant levels of disability, PTSD, depression, and anxiety. […] Indeed, disability measures continued to improve, and psychiatric symptom remission and response rates one-month post-treatment remained high.
Clinician administered scales included CAPS-5 (Clinician-administered PTSD Scale for DSM-5), which is a gold standard assessment of PTSD symptom severity; MADRS (Montgomery-Asberg Depression Rating Scale), a measure for depressive symptom severity; and Hamilton-Anxiety Rating Scale (HAM-A) (Shear, M. K. et al., Depress. Anxiety 13, 166-178 (2001)) a measure for anxiety symptom severity; SCID-5 (Structured Clinical Interview for DSM-5) Overview for a historical and environmental context of symptom presentation; MINI DSM-5 (Mini International Neuropsychiatric Interview from DSM-5) for a structured psychodiagnostics assessment; BAT-L (Boston Assessment of TBI—Lifetime) for a lifetime history of TBI and blast exposure; and Ohio State University TBI Identification Method (Short Form) for a lifetime history of TBI. MADRS testing provides an indication of depressive symptoms, CAPS-5 provides an indication of PTSD and SIGH-A provides an indication of anxiety. […]

[6] = test system: N-methyl-D-aspartate, kappa and mu opioid, sigma-1 and -2, nicotinic acetylcholine, serotonin transporter, and dopamine transporter; details: cited from earlier work

In the case of `CCC1CC2CC3c4[nH]c5ccc(OC)cc5c4CCN(C2)C13` (centres unmarked) [ibogaine, Ibogaine], the “Cortical neuron dendritic arbor complexity” value [1] is listed as “increases cortical neuron dendritic arbor complexity”, the “Visuospatial Memory (BVMT-R), D” value ([2]; baseline vs 1-month post) is listed as 0.32 and the “Visuospatial Memory (BVMT-R), D” value ([2]; baseline vs 1-wk post) is listed as 0.50. For the same compound, the Visual memory improvement ([2]; both timepoints) was “significant improvement in visual memory at both timepoints”, the “White matter hypointensities (corrected for cerebral white matter), baseline vs. one month post treatment” value ([3]; 17 subjects, two-tailed p = 0.0789, left tailed p = 0.9606, right-tailed p = 0.0394) was “Two-tailed: no significant differences” and the “Subcortical Gray Matter volume, baseline vs. one month post treatment” value ([3]; 17 subjects, two-tailed p = 0.0949, left tailed p = 0.0475, alpha = 0.05) was “Two-tailed: no significant differences”. The “Total Gray Matter volume, baseline vs. one month post treatment” value ([3]; 17 subjects, two-tailed p = 0.4755, alpha = 0.05) was “Two-tailed: no significant differences”, the “Cortical Gray Matter volume, baseline vs. one month post treatment” value ([3]; 17 subjects, two-tailed p = 0.4847, alpha = 0.05) was “Two-tailed: no significant differences” and the “Regional brain volume increases, baseline to one month after treatment” value ([3]; 47 brain regions (FIG. 8A)) was “Increases in volume were observed in the cerebral white mater (left) and the left ventral DC”. For the same compound, the “Regional cortical thickness change” value ([3]; baseline to one month after treatment (FIG. 8B)) was “Increases in cortical thickness one-month after treatment was observed in left entorhinal cortex, left-lateral-orbitofrontal pole, parahippocampal gyrus (bilaterally), left insular cortex, and right-pars triangularis (inferior frontal gyrus)”, the “Left hemisphere mean thickness” value ([3]; one month after treatment vs baseline, two-tailed p=0.7146, alpha=0.05) was “no significant difference from baseline” and the “Right hemisphere mean thickness” value ([3]; one month after treatment vs baseline, two-tailed, alpha=0.05) was “no significant difference from baseline”. For the same compound, the “Inspection of brain volume and thickness for damage” value ([3]; treated subjects, one month after treatment) was “no apparent damage to the brain”, the “WHODAS 2.0 Mobility subscale, D” value ([4]; Baseline vs One-Month) was 0.83 and the “WHODAS 2.0 Self Care subscale, D” value ([4]; Baseline vs One-Month) was 0.51. The “WHODAS 2.0 Cognition subscale, D” value ([4]; Baseline vs Post-Treatment) was 0.96, the “WHODAS 2.0 Community Participation subscale, D” value ([4]; Baseline vs Post-Treatment) was 0.53 and the “WHODAS 2.0 Interpersonal subscale, D” value ([4]; Baseline vs Post-Treatment) was 0.60. The “WHODAS 2.0 Life Activities subscale, D” value ([4]; Baseline vs Post-Treatment) was 0.48, the “WHODAS 2.0 Mobility subscale, D” value ([4]; Baseline vs Post-Treatment) was 0.53 and the “WHODAS 2.0 Self Care subscale, D” value ([4]; Baseline vs Post-Treatment) was 0.37. For the same compound, the “WHODAS 2.0 Self Care subscale, mean” value ([4]; One-Month, SD 2.9%, p(FDR) 0.009) was 1.0% ±, the “WHODAS 2.0 Mobility subscale, mean” value ([4]; One-Month, SD 3.3%, p(FDR) <0.001) was 1.3% ± and the “WHODAS 2.0 Cognition subscale, mean” value ([4]; One-Month, SD 7.9%, baseline 36.1% ± 14.6%, p(FDR) <0.001) was 5.0% ±. The “WHODAS 2.0 Interpersonal subscale, mean” value ([4]; One-Month, SD 9.5%, baseline 32.3% ± 20.4, p(FDR) <0.001) was 4.8% ±, the “WHODAS 2.0 Community Participation subscale, mean” value ([4]; One-Month, SD 13.1%, baseline 35.6% ± 21.1%, p(FDR) <0.001) was 5.9% ± and the “WHODAS 2.0 Life Activities subscale, mean” value ([4]; One-Month, SD 16.2%, baseline 41.1% ± 24.8%, p(FDR) <0.001) was 9.1% ±. For the same compound, the “WHODAS 2.0 Self Care subscale, mean” value ([4]; Post-Treatment, SD 4.7%, p(FDR) 0.028) was 1.9% ±, the “WHODAS 2.0 Mobility subscale, mean” value ([4]; Post-Treatment, SD 13.5%, p(FDR) 0.001) was 7.2% ± and the Functioning ([4]; immediately and one-month post-treatment) was “clinically and statistically significant improvements in functioning”. For the same compound, the “Cohen's D on clinician rated psychiatric assessments” value [5] was over 2 and the “Affinity for neurotransmitter receptors” value [6] was “moderate-to-weak affinity”.
